Consider 8 compounds from PubChem BioAssay (NCI).

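Results reflect a 48-hour exposure of cells in 96-well plates to compound at five concentrations. Here, GI50 denotes the concentration required for 50% inhibition of growth. Definition used: TGI = concentration required for complete inhibition of growth.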 A value given as a limit tells only on which side of the number the result lay.

Some test systems named below: MOLT-4 leukemia; NCI-H460 lung; IGROV1 ovarian; OVCAR-5 ovarian; UACC-257 melanoma; SK-OV-3 ovarian; KM12 colon; OVCAR-8 ovarian; SW-620 colon; A549 NSCLC.
Experiment in all cases: NCI-60 cell line screen, 48 h

In the case of `O=C(O)C1CCCN1` (stereo unspecified), the TGI with MOLT-4 leukemia, with NCI-H460 lung, with IGROV1 ovarian, with OVCAR-5 ovarian, in the assay with UACC-257 melanoma and in the assay on SK-OV-3 ovarian was more than 100 µM in each case. Further, the TGI in the assay on KM12 colon, in the assay with OVCAR-8 ovarian, in the assay with SW-620 colon and in the assay on A549 NSCLC was more than 100 µM each time.
Consider `N#Cc1nc2cc(Cl)c(Cl)cc2nc1-c1ccc(Cl)cc1`, for which the GI50 in the assay on MOLT-4 leukemia is 26.9 µM; with NCI-H460 lung, 37.6 µM; with IGROV1 ovarian, 73.2 µM; in the assay on OVCAR-5 ovarian, more than 100 µM; with UACC-257 melanoma it was 97.4 µM; with SK-OV-3 ovarian, more than 48.3 µM. In addition, the GI50 is more than 60.5 µM with KM12 colon, 55.7 µM in the assay with OVCAR-8 ovarian, more than 100 µM in the assay with SW-620 colon and 13.8 µM in the assay on A549 NSCLC. For the same compound, the TGI was more than 60.4 µM in the assay with MOLT-4 leukemia; more than 100 µM with NCI-H460 lung; more than 100 µM with IGROV1 ovarian; more than 100 µM in the assay with OVCAR-5 ovarian; more than 100 µM with UACC-257 melanoma; more than 80.5 µM in the assay on SK-OV-3 ovarian. The TGI in the assay on KM12 colon was more than 100 µM; in the assay with OVCAR-8 ovarian it was more than 100 µM; in the assay with SW-620 colon, more than 100 µM; in the assay on A549 NSCLC it was more than 46.6 µM.
Turning to `C/C(=C1\C(=O)Nc2ccccc21)c1cccc(/C(C)=C2/C(=O)Nc3ccccc32)n1`, the GI50 was 6.95 µM with MOLT-4 leukemia; 5.08 µM in the assay on NCI-H460 lung; 35.6 µM with IGROV1 ovarian; 48.4 µM with OVCAR-5 ovarian; 9.43 µM in the assay with UACC-257 melanoma; 26.2 µM with SK-OV-3 ovarian. Besides, the GI50 with OVCAR-8 ovarian was 6.39 µM; with SW-620 colon it was 7.69 µM; in the assay with A549 NSCLC it was 7.38 µM. The TGI with MOLT-4 leukemia is more than 100 µM; with NCI-H460 lung, more than 100 µM; in the assay with IGROV1 ovarian it was more than 100 µM; in the assay with OVCAR-5 ovarian, more than 100 µM; in the assay with UACC-257 melanoma it was 86 µM; in the assay on SK-OV-3 ovarian, more than 100 µM. For the same compound, the TGI with OVCAR-8 ovarian was 76.8 µM; with SW-620 colon, more than 100 µM; in the assay with A549 NSCLC, more than 100 µM.
`COc1cccc2c1C(=O)c1c(O)c3c(c(O)c1C2=O)C[C@@](O)(/C(C)=N/NC(=O)c1cccc([N+](=O)[O-])c1)C[C@@H]3OC1CC(N)C(O)C(C)O1` (stereo partly specified): the GI50 with MOLT-4 leukemia was 0.0524 µM; in the assay on NCI-H460 lung, 0.0548 µM; with IGROV1 ovarian, 0.932 µM; in the assay with OVCAR-5 ovarian, 0.919 µM; in the assay on UACC-257 melanoma it was 0.757 µM; in the assay with SK-OV-3 ovarian, 0.374 µM. The GI50 in the assay with KM12 colon was 0.404 µM; in the assay on OVCAR-8 ovarian it was 0.366 µM; with SW-620 colon it was 0.156 µM; with A549 NSCLC, 0.362 µM. Moreover, the TGI with MOLT-4 leukemia worked out at 4.9 µM; in the assay with NCI-H460 lung it was 12.9 µM; in the assay with OVCAR-5 ovarian, 13.5 µM; with UACC-257 melanoma it was 3.43 µM; with SK-OV-3 ovarian it was 7.56 µM; in the assay on KM12 colon, 10.9 µM. Besides, the TGI with OVCAR-8 ovarian was 21 µM; with SW-620 colon, 9.4 µM; with A549 NSCLC, 11.8 µM.
For the compound `Cc1cc(NC(=O)NCCCOc2ccc(N3C(N)=NC(N)=NC3(C)C)cc2Cl)ccc1S(=O)(=O)F`, the GI50 was 1.14 µM in the assay on MOLT-4 leukemia; 0.259 µM in the assay on NCI-H460 lung; 0.332 µM in the assay on IGROV1 ovarian; 0.883 µM in the assay with OVCAR-5 ovarian; 4.09 µM with UACC-257 melanoma; 9.72 µM in the assay with SK-OV-3 ovarian. The GI50 in the assay on KM12 colon was 0.631 µM; in the assay on OVCAR-8 ovarian, 2.52 µM; with SW-620 colon, 0.373 µM; in the assay with A549 NSCLC it was 0.412 µM. The TGI with MOLT-4 leukemia is more than 96.1 µM; in the assay on NCI-H460 lung, 14.7 µM; in the assay with IGROV1 ovarian it was more than 68.8 µM; in the assay on OVCAR-5 ovarian it was more than 100 µM; in the assay with UACC-257 melanoma, 30.9 µM; in the assay with SK-OV-3 ovarian, more than 82.3 µM. In addition, the TGI in the assay on KM12 colon was 17 µM; with OVCAR-8 ovarian it was more than 100 µM; in the assay on SW-620 colon, more than 100 µM; in the assay on A549 NSCLC, more than 100 µM.
`Clc1ccc2c(NCCCCNc3nc(N4CCOCC4)nc4ccccc34)ccnc2c1`: the GI50 in the assay with MOLT-4 leukemia was 3.59 µM; in the assay with NCI-H460 lung, 2.22 µM; in the assay on IGROV1 ovarian, 2.99 µM; in the assay with OVCAR-5 ovarian, 3.36 µM; in the assay on UACC-257 melanoma, 15.2 µM; in the assay with SK-OV-3 ovarian it was 3.03 µM. Also, the GI50 is 3.52 µM with KM12 colon, 3.53 µM with OVCAR-8 ovarian, 2.65 µM in the assay on SW-620 colon and 3.16 µM in the assay with A549 NSCLC. Further, the TGI in the assay with MOLT-4 leukemia turned out to be 14 µM; in the assay with NCI-H460 lung it was 5.22 µM; in the assay with IGROV1 ovarian, 11.5 µM; with OVCAR-5 ovarian it was 12 µM; with UACC-257 melanoma it was 29.9 µM; with SK-OV-3 ovarian, 9.97 µM. The TGI in the assay with KM12 colon was 12.4 µM; in the assay with OVCAR-8 ovarian it was 10.6 µM; in the assay on SW-620 colon it was 12.5 µM; with A549 NSCLC, 11.3 µM.
On to `CCn1c(-c2nonc2N)nc2cnc(Oc3cccc(NC(=O)c4ccc(OCCN5CCOCC5)cc4)c3)cc21`, for which the GI50 in the assay with MOLT-4 leukemia is 4.29 µM; with NCI-H460 lung it was 2.3 µM; with IGROV1 ovarian, 2.98 µM; in the assay on OVCAR-5 ovarian, 5.22 µM; with UACC-257 melanoma, 7.09 µM; in the assay on SK-OV-3 ovarian it was 7.33 µM. Also, the GI50 in the assay on KM12 colon is 7.63 µM; in the assay with OVCAR-8 ovarian it was 6.25 µM; in the assay with SW-620 colon, 4.57 µM; in the assay on A549 NSCLC, 2.52 µM. Also, the TGI in the assay on MOLT-4 leukemia was 24.4 µM; in the assay with NCI-H460 lung it was more than 25 µM; in the assay with IGROV1 ovarian, more than 20.3 µM; with OVCAR-5 ovarian it was more than 25 µM; in the assay on UACC-257 melanoma, more than 25 µM; in the assay with SK-OV-3 ovarian it was more than 25 µM. Moreover, the TGI in the assay with KM12 colon, in the assay on OVCAR-8 ovarian, in the assay on SW-620 colon and in the assay with A549 NSCLC was more than 25 µM in each case.
Regarding `OC(c1ccccc1)c1c(-c2ccccc2)[nH]c(-c2ccccc2)c1C(O)c1ccccc1` (stereo unspecified), the TGI worked out at 7 µM with MOLT-4 leukemia; 14.2 µM in the assay on NCI-H460 lung; 12 µM in the assay with IGROV1 ovarian; 10.8 µM in the assay with OVCAR-5 ovarian; 8.61 µM in the assay on UACC-257 melanoma; 47.2 µM in the assay on SK-OV-3 ovarian. Moreover, the TGI in the assay with KM12 colon stood at 6.09 µM; with SW-620 colon it was 29.1 µM; with A549 NSCLC, 18.9 µM.
